The target of the assay is T1, Heat shock factor 1 (HSF1) (Homo sapiens, UniProt Q00613).
T1 sequence (Q00613 15-120 limits assumed): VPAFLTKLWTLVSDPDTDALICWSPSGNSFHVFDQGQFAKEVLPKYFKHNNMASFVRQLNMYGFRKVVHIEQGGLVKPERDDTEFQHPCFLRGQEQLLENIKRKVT
Kind of assay: SPR Kd. Type of assay: binding.

Molecules are shown by their SMILES.

On to `O=C(Nc1ccc(F)cc1)Nc1ccc(Cl)c([N+](=O)[O-])c1` [DTHIB], for which the Kd came out at 160 nM.

Values taken from PMC10571035 (Science translational medicine, 2020).
